From US6150385A, “1,3,4-thiadiazoles useful for the treatment of CMV infections” (Pharmacia & Upjohn Company, priority 1999, dated 2000) come the findings set out here.

T1 sequence (P08546 whole entry): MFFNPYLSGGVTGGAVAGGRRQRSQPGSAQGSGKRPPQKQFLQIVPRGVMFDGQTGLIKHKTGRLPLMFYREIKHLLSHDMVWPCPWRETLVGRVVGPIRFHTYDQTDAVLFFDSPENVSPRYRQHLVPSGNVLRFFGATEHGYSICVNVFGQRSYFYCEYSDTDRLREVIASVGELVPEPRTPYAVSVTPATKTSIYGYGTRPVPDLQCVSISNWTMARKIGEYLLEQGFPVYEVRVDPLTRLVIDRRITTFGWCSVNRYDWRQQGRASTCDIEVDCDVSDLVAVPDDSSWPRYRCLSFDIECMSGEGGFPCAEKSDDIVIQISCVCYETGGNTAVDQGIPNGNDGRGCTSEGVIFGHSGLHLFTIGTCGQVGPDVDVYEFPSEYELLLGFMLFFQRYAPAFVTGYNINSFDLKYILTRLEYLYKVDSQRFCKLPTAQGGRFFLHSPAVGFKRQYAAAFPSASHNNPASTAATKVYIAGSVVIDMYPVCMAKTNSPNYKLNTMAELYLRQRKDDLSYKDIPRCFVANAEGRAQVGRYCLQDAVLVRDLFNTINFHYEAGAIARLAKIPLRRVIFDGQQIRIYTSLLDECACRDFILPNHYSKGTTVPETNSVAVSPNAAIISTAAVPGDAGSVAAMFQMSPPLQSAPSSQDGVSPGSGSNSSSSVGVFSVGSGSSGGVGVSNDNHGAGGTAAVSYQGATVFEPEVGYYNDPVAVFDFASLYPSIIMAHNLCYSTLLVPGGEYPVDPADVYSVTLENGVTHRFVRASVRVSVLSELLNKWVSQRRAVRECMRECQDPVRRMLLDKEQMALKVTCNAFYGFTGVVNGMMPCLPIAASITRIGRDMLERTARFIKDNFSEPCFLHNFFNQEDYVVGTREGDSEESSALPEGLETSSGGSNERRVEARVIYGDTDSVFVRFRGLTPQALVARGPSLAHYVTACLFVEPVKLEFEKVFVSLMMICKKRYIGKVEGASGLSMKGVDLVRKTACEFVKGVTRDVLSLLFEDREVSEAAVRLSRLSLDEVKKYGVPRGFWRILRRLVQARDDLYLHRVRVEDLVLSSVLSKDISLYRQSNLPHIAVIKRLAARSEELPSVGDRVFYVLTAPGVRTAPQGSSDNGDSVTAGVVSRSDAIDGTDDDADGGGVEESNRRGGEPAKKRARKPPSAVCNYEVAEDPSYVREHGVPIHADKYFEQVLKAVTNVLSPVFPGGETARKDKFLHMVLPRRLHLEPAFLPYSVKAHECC

The assay addresses T1, HCMV polymerase (Human cytomegalovirus, UniProt P08546).
T1 construct: made in house; host or cells: SF-9 insect cells infected with recombinant baculovirus
The experiment in a line: HCMV polymerase assay (scintillation proximity assay). The note with it: percentage of inhibition at 25 μM concentration in CMV polymerase assay. Format: biochemical. The procedure:
The compounds of the present invention are tested in an polymerase assay to show activity described below, which is indicative of a compound's activity and thus of its use as an anti-viral agent.
The HCMV polymerase assay is performed using a scintillation proximity assay (SPA) as described in several references, such as N. D. Cook, et al., Pharmaceutical Manufacturing International, pages 49-53 (1992); K. Takeuchi, Laboratory Practice, September issue (1992); U.S. Pat. No. 4,568,649 (1986); which are incorporated by reference herein. Reactions are performed in 96-well plates. The assay is conducted in 100 μl volume with 5.4 mM HEPES (pH 7.5), 11.7 mM KCl, 4.5 mM MgCl2, 0.36 mg/ml BSA, and 90 nM ^3 H-dTTP. Assays are run with and without CHAPS, (3-[(3-Cholamidopropyl)-dimethylammonio]-1-propanesulfonate) at a final concentration of 2 mM. HCMV is diluted in enzyme dilution buffer containing 50% glycerol, 250 mM NaCl, 10 mM HEPES (pH 7.5), 100 μg/ml BSA, and 0.01% sodium azide. The HCMV polymerase, which is expressed in recombinant baculovirus-infected SF-9 cells and purified according to literature procedures, is added at 10% (or 10 μl) of the final reaction volume, i.e., 100 μl. Compounds are diluted in 50% DMSO and 10 μl are added to each well. Control wells contain an equivalent concentration of DMSO. Unless noted otherwise, reactions are initiated via the addition of 6 nM biotinylated poly(dA)-oligo(dT) template/primer to reaction mixtures containing the enzyme, substrate, and compounds of interest. Plates are incubated in a 25° C. or 37° C. H2 O bath and terminated via the addition of 40 μl/reaction of 0.5 M EDTA (pH 8) per well. Reactions are terminated within the time-frame during which substrate incorporation is linear and varied depending upon the enzyme and conditions used, i.e., 30 min. for HCMV polymerase. Ten μl of streptavidin-SPA beads (20 mg/ml in PBS/10% glycerol) are added following termination of the reaction. Plates are incubated 10 min. at 37° C., then equilibrated to room temperature, and counted on a Packard Topcount.
In TABLE 1, "MS" refers to mass spectral data, "% inhib" refers to percentage of inhibition at 25 μM concentration in CMV polymerase assay.
`CCCCCCCC/C=C/CCCCCCCC(=O)Nc1nnc(NCc2cccs2)s1` [compound 42, (E)-N-{5-[(2-thienylmethyl)amino]-1,3,4-thiadiazol-2-yl}-9-octadecenamide] gave an inhibition at 25 µM of 84.6%.

Take `O=C(Nc1nnc(NCC(c2ccccc2)c2ccccc2)s1)c1ccc([N+](=O)[O-])o1` [compound 306, N-{5-[(2,2-diphenylethyl)amino]-1,3,4-thiadiazol-2-yl}-5-nitro-2-furamide]: 25 µM produced 34.4% inhibition.

As for `N#Cc1ccc(C(=O)Nc2nnc(NCCc3ccc(S(N)(=O)=O)cc3)s2)cc1` [compound 335, N-(5-{[4-(aminosulfonyl)phenethyl]amino}-1,3,4-thiadiazol-2-yl)-4-cyanobenzamide], the inhibition at 25 µM was found to be 31.7%.

In the case of `N#Cc1ccc(C(=O)Nc2nnc(NCCN3CCOCC3)s2)cc1` [compound 464, 4-cyano-N-{5-[(2-morpholinoethyl)amino]-1,3,4-thiadiazol-2-yl}benzamide], the inhibition at 25 µM worked out at 20.3%.

Turning to `O=C(Nc1nnc(NCc2cccc3ccccc23)s1)c1ccc2c(c1)C(=O)OC2=O` [compound 8, N-{5-[(1-naphthylmethyl)amino]-1,3,4-thiadiazol-2-yl}-1,3-dioxo-1,3-dihydro-2-benzofuran-5-carboxamide], at 25 µM the inhibition was 99.8%.

Regarding `O=C(CCCCCl)Nc1nnc(NCCc2c[nH]c3ccccc23)s1` [compound 346, 5-chloro-N-(5-{[2-(1H-indol-3-yl)ethyl]amino}-1,3,4-thiadiazol-2-yl)pentanamide], testing at 25 µM gave an inhibition of 30.7%.

`CCCCCCCC/C=C/CCCCCCCC(=O)Nc1nnc(NCCSc2ccccc2)s1` [compound 58, (E)-N-(5-{[2-(phenylsulfanyl)ethyl]amino}-1,3,4-thiadiazol-2-yl)-9-octadecenamide] returned an inhibition at 25 µM of 75.8%.

Consider `CCCCCCCC/C=C/CCCCCCCC(=O)Nc1nnc(NCCC#N)s1` [compound 249, (E)-N-{5-[(2-cyanoethyl)amino]-1,3,4-thiadiazol-2-yl}-9-octadecenamide], for which the inhibition at 25 µM was found to be 40.6%.

For the compound `O=C(Nc1nnc(NC2CC2)s1)c1cc2ccccc2s1` [compound 287, N-[5-(cyclopropylamino)-1,3,4-thiadiazol-2-yl]-1-benzothiophene-2-carboxamide], the inhibition at 25 µM is 36.2%.

For the compound `NS(=O)(=O)c1ccc(CCNc2nnc(NC(=O)c3ccc4c(c3)C(=O)OC4=O)s2)cc1` [compound 15, N-(5-{[4-(aminosulfonyl)phenethyl]amino}-1,3,4-thiadiazol-2-yl)-1,3-dioxo-1,3-dihydro-2-benzofuran-5-carboxamide], the inhibition at 25 µM was 98.8%.

`O=C(CCCCCl)Nc1nnc(NCc2cccc3ccccc23)s1` [compound 200, 5-chloro-N-{5-[(1-naphthylmethyl)amino]-1,3,4-thiadiazol-2-yl}pentanamide] showed an inhibition at 25 µM of 45.3%.

The compound `NS(=O)(=O)c1ccc(CNc2nnc(NC(=O)/C=C/c3ccccc3)s2)cc1` [compound 32, (E)-N-(5-{[4-(aminosulfonyl)benzyl]amino}-1,3,4-thiadiazol-2-yl)-3-phenyl-2-propenamide] had an inhibition at 25 µM of 90.6%.

As for `O=C(/C=C/c1ccccc1Cl)Nc1nnc(NC2CCN(Cc3ccccc3)CC2)s1` [compound 110, (E)-N-{5-[(1-benzyl-4-piperidinyl)amino]-1,3,4-thiadiazol-2-yl}-3-(2-chlorophenyl)-2-propenamide], the inhibition at 25 µM came out at 62.9%.

The compound `CC(C)c1cc(C(C)C)c(C(=O)Nc2nnc(NCCCNC3CCCCC3)s2)c(C(C)C)c1` [compound 36, N-(5-{[3-(cyclohexylamino)propyl]amino}-1,3,4-thiadiazol-2-yl)-2,4,6-triisopropylbenzamide] came in with an inhibition at 25 µM of 87.6%.

Take `O=C(Nc1nnc(NCCc2ccccc2)s1)c1ccc(Cl)cc1Cl` [compound 308, 2,4-dichloro-N-[5-(phenethylamino)-1,3,4-thiadiazol-2-yl]benzamide]: the inhibition at 25 µM was determined as 34.2%.

Take `O=C(/C=C/c1ccccc1)Nc1nnc(NCc2ccc3c(c2)OCO3)s1` [compound 178, (E)-N-{5-[(1,3-benzodioxol-5-ylmethyl)amino]-1,3,4-thiadiazol-2-yl}-3-phenyl-2-propenamide]: 25 µM produced 49% inhibition.

As to `O=C(Nc1nnc(NCCc2c[nH]c3ccccc23)s1)c1ccc(I)cc1` [compound 252, N-(5-{[2-(1H-indol-3-yl)ethyl]amino}-1,3,4-thiadiazol-2-yl)-4-iodobenzamide], testing at 25 µM gave an inhibition of 40.2%.

Consider `O=C(Nc1nnc(NC2CCCCCC2)s1)c1ccc(S(=O)(=O)F)cc1` [compound 278, 4-({[5-(cycloheptylamino)-1,3,4-thiadiazol-2-yl]amino}carbonyl)benzenesulfonyl fluoride], for which the “% Inhib” value is recorded as 37.5%.

`O=C(Nc1nnc(NCCC(c2ccccc2)c2ccccc2)s1)c1ccc(C(F)(F)F)cc1` [compound 376, N-{5-[(3,3-diphenylpropyl)amino]-1,3,4-thiadiazol-2-yl}-4-(trifluoromethyl)benzamide] registered an inhibition at 25 µM of 27.9%.

As for `O=C(Nc1nnc(NCc2ccc(F)cc2)s1)c1cccc([N+](=O)[O-])c1` [compound 302, N-{5-[(4-fluorobenzyl)amino]-1,3,4-thiadiazol-2-yl}-3-nitrobenzamide], testing at 25 µM gave an inhibition of 34.8%.

For the compound `O=C(/C=C/c1ccccc1Cl)Nc1nnc(NCCc2c[nH]c3ccccc23)s1` [compound 268, (E)-3-(2-chlorophenyl)-N-(5-{[2-(1H-indol-3-yl)ethyl]amino}-1,3,4-thiadiazol-2-yl)-2-propenamide], the inhibition at 25 µM worked out at 38.7%.

As to `CC(C)c1cc(C(C)C)c(C(=O)Nc2nnc(NCCc3c[nH]c4ccccc34)s2)c(C(C)C)c1` [compound 219, N-(5-{[2-(1H-indol-3-yl)ethyl]amino}-1,3,4-thiadiazol-2-yl)-2,4,6-triisopropylbenzamide], at 25 µM the inhibition was 43.6%.

For `CC(C)c1cc(C(C)C)c(C(=O)Nc2nnc(NC[C@@H]3CCC4CC3C4(C)C)s2)c(C(C)C)c1` (stereo partly drawn) [compound 440, N-[5-({[(2R)-6,6-dimethylbicyclo[3.1.1]hept-2-yl]methyl}amino)-1,3,4-thiadiazol-2-yl]-2,4,6-triisopropylbenzamide], the inhibition at 25 µM was found to be 22.5%.

Turning to `NS(=O)(=O)c1ccc(CCNc2nnc(NC(=O)c3c(Cl)cccc3Cl)s2)cc1` [compound 259, N-(5-{[4-(aminosulfonyl)phenethyl]amino}-1,3,4-thiadiazol-2-yl)-2,6-dichlorobenzamide], the inhibition at 25 µM came to 39.6%.

In turn, `O=C(Nc1nnc(NCCNc2ccccc2)s1)c1c(Cl)cccc1Cl` [compound 438, N-{5-[(2-anilinoethyl)amino]-1,3,4-thiadiazol-2-yl}-2,6-dichlorobenzamide] gave an inhibition at 25 µM of 22.6%.

With `CC(C)c1cc(C(C)C)c(C(=O)Nc2nnc(NCc3cccs3)s2)c(C(C)C)c1` [compound 424, 2,4,6-triisopropyl-N-{5-[(2-thienylmethyl)amino]-1,3,4-thiadiazol-2-yl}benzamide], at 25 µM the inhibition was 23.6%.

The compound `CC(C)c1cc(C(C)C)c(C(=O)Nc2nnc(NCCC(c3ccccc3)c3ccccc3)s2)c(C(C)C)c1` [compound 299, N-{5-[(3,3-diphenylpropyl)amino]-1,3,4-thiadiazol-2-yl}-2,4,6-triisopropylbenzamide] returned an inhibition at 25 µM of 34.9%.

One may read the inhibition as the drop in the measured response relative to a control, in per cent. A higher inhibition goes with strong suppression.
